Measurements: PMC6080863 (ACS Catalysis, 2018)
Numbering of substitutions follows the chain as printed.

Assays:
[1] = biological target: T1, DERAm (monomeric variant of ecDERA) (Escherichia coli, UniProt P0A6L0, K58E/Y259F/Y96W); experiment: 1H-15N HSQC NMR titration, chemical shift perturbation; assay type: binding
T1 sequence (P0A6L0 1-259 K58E/Y96W/Y259F): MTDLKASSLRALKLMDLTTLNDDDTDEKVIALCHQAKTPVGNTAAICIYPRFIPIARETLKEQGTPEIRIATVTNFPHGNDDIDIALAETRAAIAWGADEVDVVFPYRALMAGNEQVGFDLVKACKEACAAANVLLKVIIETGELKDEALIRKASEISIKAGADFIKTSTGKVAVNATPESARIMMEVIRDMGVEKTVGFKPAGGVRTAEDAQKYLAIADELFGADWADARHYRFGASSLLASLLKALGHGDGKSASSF

[2] = biological target: T2, DERAm (monomeric variant of ecDERA) (Escherichia coli, UniProt P0A6L0, K58E/Y96W); experiment: as above; assay type: binding
T2 sequence (P0A6L0 1-259 K58E/Y96W): T1 sequence (P0A6L0 1-259 K58E/Y96W/Y259F) with F259Y

O=P(O)(O)O [potassium phosphate]
Kd [1]: 17.9 ± 2.4 mM | Kd [2]: 18.8 ± 3.6 mM
